Holding throughout (assay): NCI-60 cell line screen, 48 h
The test system of assay [1] is CCRF-CEM leukemia.
For assay [2], the system named is COLO 205 colon.
Assay [3] deals with DU-145 prostate.
Assay [4] has as its system EKVX NSCLC.
The test system of assay [5] is HCC-2998 colon.
The subject of assay [6] is HL-60(TB) leukemia.
For assay [7], the system named is HS 578T breast.
The test system of assay [8] is IGROV1 ovarian.
Assay [9] has as its system KM12 colon.
Assay [10] deals with MALME-3M melanoma.
Assay [11] has as its system MDA-MB-231 breast.
The test system of assay [12] is MDA-N.
The subject of assay [13] is NCI-H522 lung.
For assay [14], the system named is OVCAR-5 ovarian.
In assay [15] the test system is OVCAR-8 ovarian.
Assay [16] concerns SF-295 CNS.
Assay [17] concerns SK-MEL-5 melanoma.
Assay [18] has as its system SR leukemia.
Assay [19] relates to T-47D breast.
Assay [20] has as its system U251 CNS.

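Values below derive from 48-hour exposures of cells grown in 96-well plates, with endpoints linearly interpolated between the two concentrations bracketing the appropriate inhibition level. TGI marks complete inhibition of growth.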 Where a SMILES comes first, the peptide text is derived from it. The star is where a group is joined. OBn = c1ccc(CO*)cc1

With `COc1cc(C2S/C(=C/c3ccccc3)C(=O)N2c2ccc([N+](=O)[O-])cc2)cc(OC)c1OC` (stereo not given), the TGI in assay [1] is more than 100 µM; in [2], more than 100 µM; in [3], more than 89.1 µM; in assay [4], more than 100 µM; in assay [5], more than 100 µM; in assay [6] it was more than 100 µM. The TGI in assay [7] is more than 100 µM; in assay [8], more than 83.5 µM; in assay [9], more than 100 µM; in assay [10] it was more than 100 µM; in [11] it was more than 100 µM; in [12], more than 100 µM. Also, the TGI in [13], in assay [14], in assay [15], in assay [16], in assay [17] and in assay [18] was more than 100 µM each time. Moreover, the TGI in assay [19] and in assay [20] was more than 100 µM throughout.
For the compound `NC(CCC(=O)OCc1ccccc1)C(=O)NC(CCC(=O)OCc1ccccc1)C(=O)O` (stereo not given) (H-Glu(OBn)-Glu(OBn)-OH; configuration not given here), the TGI in [1], in assay [2], in [3], in assay [4], in assay [5] and in assay [6] was more than 100 µM each time. The TGI in assay [7], in assay [8], in assay [9], in assay [10], in assay [11] and in [12] was more than 100 µM throughout. The TGI in [13], in [14], in [15], in assay [16], in assay [17] and in assay [18] was more than 100 µM throughout. Moreover, the TGI in assay [19] and in assay [20] was more than 100 µM throughout.
As for `CC(C)=CCC[C@@H](C)C1=C(Nc2ccccc2)C(O)=C(C)C(=O)C1=O`, the TGI in [1] was 0.874 µM; in assay [2], 13.1 µM; in assay [3], 28.2 µM; in assay [4], more than 39.4 µM; in assay [5], more than 41.4 µM; in assay [6] it was 1.35 µM. Moreover, the TGI in assay [7] was 9.5 µM; in assay [8], 17.6 µM; in [9], 20.7 µM; in assay [10] it was 19.9 µM; in assay [11], more than 27.4 µM; in assay [12] it was 54.2 µM. Further, the TGI was 16.5 µM in assay [13]; more than 43.5 µM in [14]; 23.5 µM in [15]; 11.1 µM in assay [16]; 7.97 µM in [17]; 6.08 µM in [18]. Also, the TGI in assay [19] is 32.3 µM; in [20] it was more than 56.1 µM.
For the compound `C#C[C@]1(O)CC[C@H]2[C@@H]3CCC4=C/C(=N\OCCN5CCCC5)CC[C@]4(C)[C@H]3CC[C@@]21C`, the TGI in assay [1] was found to be 51.6 µM; in assay [2] it was 43.1 µM; in assay [3], 41 µM; in assay [4], 38.1 µM; in assay [5] it was 34.5 µM; in [6], 8.57 µM. The TGI stood at 21.7 µM in assay [7]; 23.2 µM in assay [8]; 19.6 µM in [9]; 23.4 µM in assay [10]; 36.2 µM in assay [11]; 11.3 µM in [12]. Further, the TGI worked out at 12 µM in assay [13]; 50.3 µM in [14]; 40.7 µM in assay [15]; 14.5 µM in assay [16]; 15.4 µM in [17]; 13.3 µM in assay [18]. Also, the TGI in assay [19] was 60.4 µM; in assay [20] it was more than 49.4 µM.
In the case of `CC(C)(CCCCC(C)(C)NCC1COc2ccccc2O1)NCC1COc2ccccc2O1` (stereo not given), the TGI in assay [1] is more than 10 µM; in assay [2], 4.12 µM; in [3], more than 10 µM; in [4], more than 10 µM; in assay [5], 4.73 µM; in assay [6] it was more than 10 µM. The TGI is more than 10 µM in assay [7]; more than 10 µM in assay [8]; more than 10 µM in assay [9]; 4.65 µM in assay [10]; more than 10 µM in assay [11]; 5.66 µM in assay [12]. Moreover, the TGI in [13] is more than 10 µM; in [14] it was more than 10 µM; in assay [15] it was more than 10 µM; in assay [16], more than 10 µM; in assay [17] it was 2.95 µM; in assay [18] it was more than 10 µM. Further, the TGI in assay [19] and in assay [20] was more than 10 µM each time.
In the case of `CCOC(=O)c1c(-c2ccccc2)[nH]c2ccc(Cl)cc2c1=O`, the TGI in assay [1], in [2], in assay [3], in [4], in assay [5] and in assay [6] was more than 100 µM throughout. In addition, the TGI in assay [7], in assay [8], in assay [9], in assay [10], in assay [11] and in [12] was more than 100 µM in each case. Moreover, the TGI was 60.8 µM in assay [13]; more than 100 µM in assay [14]; more than 100 µM in assay [15]; more than 100 µM in assay [16]; more than 100 µM in assay [17]; more than 100 µM in assay [18]. Moreover, the TGI in [19] is 62 µM; in [20], more than 100 µM.
Turning to `COc1ccc(C(=O)N2CCN(c3ccc4[nH]c(=O)oc4c3)CC2)cc1`, the TGI in [1], in [2], in assay [3], in assay [4], in assay [5] and in assay [6] was more than 100 µM each time. Further, the TGI in assay [7], in assay [8], in assay [9], in assay [10], in assay [11] and in assay [12] was more than 100 µM each time. Besides, the TGI in assay [13], in [14], in [15], in assay [16], in assay [17] and in assay [18] was more than 100 µM throughout. The TGI in [19] and in [20] was more than 100 µM throughout.

(Values after PubChem BioAssay (NCI).)
